What follows are compounds tested against KRAS^G12C (Homo sapiens, UniProt P01116, C118A/G12C) (assay: Coupled Nucleotide Exchange Assay). Settings: GDP-bound KRAS (aa 1-169) G12C/C118A; 2 h compound pre-incubation; SOS-mediated exchange, 30 min; cRAF binding (AlphaLISA).
Format: biochemical
Experimental: The KRAS^G12C coupled nucleotide exchange assay allows for the screening and profiling of KRAS^G12C antagonists/inhibitors by monitoring the binding of an effector protein (e.g., a Ras binding domain of Raf1, RBD-cRaf) to KRAS^G12C. Purified GDP-bound KRAS protein (aa 1-169), containing both G12C and C118A amino acid substitutions and an N-terminal His-tag, was pre-incubated in assay buffer (25 mM HEPES pH 7.4, 10 mM MgCl2, 0.01% Triton X-100, either with or without 0.1% BSA) with serially diluted compound for 2 h. For all subsequent steps, BSA was omitted and DTT was added to the reaction buffer at a final concentration of 1 mM. Following compound pre-incubation, purified SOS protein (aa 564-1049) and GTP (Roche 10106399001) were added to the assay wells and incubated for an additional 30 min. To determine the extent of inhibition of SOS-mediated nucleotide exchange, purified GST-tagged cRAF (aa 1-149), nickel chelate AlphaLISA acceptor beads (PerkinElmer AL108R), and AlphaScreen glutathione donor beads (PerkinElmer 6765302) were added to the assay wells and incubated for 5-30 min. The assay plates were then read on a plate reader measuring luminescence signal. Signal intensity of compound-containing wells were normalized to DMSO control, and data were analyzed using a 4-parameter logistic model to calculate IC50 values.

KRAS^G12C, sequence (P01116 1-169 isoform P01116-2 G12C/C118A): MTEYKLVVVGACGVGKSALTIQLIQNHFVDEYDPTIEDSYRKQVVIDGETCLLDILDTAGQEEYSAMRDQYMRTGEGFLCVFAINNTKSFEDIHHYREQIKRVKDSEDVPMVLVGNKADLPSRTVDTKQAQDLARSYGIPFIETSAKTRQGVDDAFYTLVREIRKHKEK

Point of comparison: C=CC(=O)N1CCN(C2CN(c3cc(N4CCC5(CC4)CCN(C4COC4)C5)nc(C(F)(F)F)c3C#N)C2)CC1 [Compound 3-048, 4-(3-(4-acryloylpiperazin-1-yl)azetidin-1-yl)-6-(2-(oxetan-3-yl)-2,8-diazaspiro[4.5]decan-8-yl)-2-(trifluoromethyl)nicotinonitrile], IC50 2.29 µM. Against it:
- C=CC(=O)N1CCN(C2CN(c3cc(N4CCC5(CCCCO5)CC4)nc(C(F)(F)F)c3C#N)C2)CC1 [Compound 3-035, 4-(3-(4-acryloylpiperazin-1-yl)azetidin-1-yl)-6-(1-oxa-9-azaspiro[5.5]undecan-9-yl)-2-(trifluoromethyl)nicotinonitrile] — 1.6-fold higher, 3.58 µM
- C=CC(=O)N1CCN(C2CN(c3cc(N4CCC5(CC4)CC5(F)F)nc(C(F)(F)F)c3C#N)C2)CC1 [Compound 3-036, 4-(3-(4-acryloylpiperazin-1-yl)azetidin-1-yl)-6-(1,1-difluoro-6-azaspiro[2.5]octan-6-yl)-2-(trifluoromethyl)nicotinonitrile] — 2.9-fold higher, 6.7 µM
- C=CC(=O)N1CCN(C2CN(c3cc(N4CCC5(CC4)CC(F)(F)C5)nc(C(F)(F)F)c3C#N)C2)CC1 [Compound 3-037, 4-(3-(4-acryloylpiperazin-1-yl)azetidin-1-yl)-6-(2,2-difluoro-7-azaspiro[3.5]nonan-7-yl)-2-(trifluoromethyl)nicotinonitrile] — within 1.5-fold, 3.3 µM
- C=CC(=O)N1CCN(C2CN(c3cc(N4CCC5(CC4)CC5)nc(C(F)(F)F)c3C#N)C2)CC1 [Compound 3-038, 4-(3-(4-acryloylpiperazin-1-yl)azetidin-1-yl)-6-(6-azaspiro[2.5]octan-6-yl)-2-(trifluoromethyl)nicotinonitrile] — 2.5-fold higher, 5.7 µM
- C=CC(=O)N1CCN(C2CN(c3cc(N4CCC5(CC4)OC(C)(C)c4ccccc45)nc(C(F)(F)F)c3C#N)C2)CC1 [Compound 3-040, 4-(3-(4-acryloylpiperazin-1-yl)azetidin-1-yl)-6-(3,3-dimethyl-3H-spiro[isobenzofuran-1,4′-piperidin]-1′-yl)-2-(trifluoromethyl)nicotinonitrile] — within 1.5-fold, 2.84 µM
- C=CC(=O)N1CCN(C2CN(c3cc(N4CCC5(CC4)OCc4cc(Cl)ccc45)nc(C(F)(F)F)c3C#N)C2)CC1 [Compound 3-041, 4-(3-(4-acryloylpiperazin-1-yl)azetidin-1-yl)-6-(5-chloro-3H-spiro[isobenzofuran-1,4′-piperidin]-1′-yl)-2-(trifluoromethyl)nicotinonitrile] — higher, > 6.25 µM
- C=CC(=O)N1CCN(C2CN(c3cc(N4CCC5(CC4)OCC4CC45)nc(C(F)(F)F)c3C#N)C2)CC1 (stereo not shown) [Compound 3-042, 4-(3-(4-acryloylpiperazin-1-yl)azetidin-1-yl)-6-(3-oxaspiro[bicyclo[3.1.0]hexane-2,4′-piperidin]-1′-yl)-2-(trifluoromethyl)nicotinonitrile] — 2.2-fold higher, 5.12 µM
- C=CC(=O)N1CCN(C2CN(c3cc(N4CCC5(CC4)CC(F)(F)CO5)nc(C(F)(F)F)c3C#N)C2)CC1 [Compound 3-044, 4-(3-(4-acryloylpiperazin-1-yl)azetidin-1-yl)-6-(3,3-difluoro-1-oxa-8-azaspiro[4.5]decan-8-yl)-2-(trifluoromethyl)nicotinonitrile] — within 1.5-fold, 3.32 µM
- C=CC(=O)N1CCN(C2CN(c3cc(N4CCC5(CC4)CC(C)(C)CO5)nc(C(F)(F)F)c3C#N)C2)CC1 [Compound 3-045, 4-(3-(4-acryloylpiperazin-1-yl)azetidin-1-yl)-6-(3,3-dimethyl-1-oxa-8-azaspiro[4.5]decan-8-yl)-2-(trifluoromethyl)nicotinonitrile] — 2.8-fold higher, 6.35 µM
- C=CC(=O)N1CCN(C2CN(c3cc(N4CCC5(CC4)OCc4cnn(C)c45)nc(C(F)(F)F)n3)C2)CC1 [Compound 3-047, 1-(4-(1-(6-(1-methyl-1,4-dihydrospiro[furo[3,4-c]pyrazole-6,4′-piperidin]-1′-yl)-2-(trifluoromethyl)pyrimidin-4-yl)azetidin-3-yl)piperazin-1-yl)prop-2-en-1-one] — within 1.5-fold, 2.69 µM
- C=CC(=O)N1CCN([C@@H]2CN(c3cc(N4CCC5(CC4)OCC=C5C)nc(C(F)F)n3)[C@@H]2C)CC1 [Compound 3-050, 1-(4-((2R,3R)-1-(2-(Difluoromethyl)-6-(4-methyl1-oxa-8-azaspiro[4.5]dec3-en-8-yl)pyrimidin-4-yl)-2-methylazetidin-3-yl)piperazin-1-yl)prop2-en-1-one] — 2.8-fold lower, 0.825 µM
- C=CC(=O)N1CCN([C@@H]2CN(c3cc(N4CCC5(CC4)C(C)=CCN5C)nc(C(F)(F)F)n3)[C@@H]2C)CC1 [Compound 3-055, 1-(4-((2R,3R)-1-(6-(1,4-Dimethyl-1,8-diazaspiro[4.5]dec-3-en-8-yl)-2-(trifluoromethyl)pyrimidin-4-yl)-2-methylazetidin-3-yl)piperazin-1-yl)prop-2-en1-one] — 1.7-fold lower, 1.32 µM
- C=CC(=O)N1CCN(C2CN(c3cc(N4CCC5(CCCO5)[C@@H](CO)C4)nc(C(F)(F)F)c3C#N)C2)CC1 (stereo partly drawn) [Compound 3-062-2, 4-(3-(4-acryloylpiperazin-1-yl)azetidin-1-yl)-6-((6R)-6-(hydroxymethyl)-1-oxa-8-azaspiro[4.5]decan-8-yl)-2-(trifluoromethyl)nicotinonitrile] — 2.7-fold higher, 6.2 µM
- C=CC(=O)N1CCN(C2CN(c3cc(N4CCC5(CCc6ccccc65)CC4)nc(C(F)(F)F)n3)C2)CC1 [Compound 3-063, 1-(4-(1-(6-(2,3-Dihydrospiro[indene-1,4′-piperidin]-1′-yl)-2-(trifluoromethyl)pyrimidin-4-yl)azetidin-3-yl)piperazin-1-yl) prop-2-en-1-one] — 3.6-fold higher, 8.24 µM
- C=CC(=O)N1CCN(C2CN(c3cc(N4CCC5(CC4)OCCc4ccsc45)nc(C(F)(F)F)n3)C2)CC1 [Compound 3-064, 1-(4-(1-(6-(4′,5′-dihydrospiro[piperidine-4,7′-thieno[2,3-c]pyran]-1-yl)-2-(trifluoromethyl)pyrimidin-4-yl)azetidin-3-yl)piperazin-1-yl)prop-2-en-1-one] — 2.5-fold higher, 5.7 µM
- C=CC(=O)N1CCN(C2CN(c3cc(N4CCC5(CC4)OC(C)C=C5Cl)nc(C(F)(F)F)c3C#N)C2)CC1 (stereo not shown) [Compound 3-065, 4-(3-(4-Acryloylpiperazin-1-yl)azetidin-1-yl)-6-(4-chloro-2-methyl-1-oxa-8-azaspiro[4.5]dec-3-en-8-yl)-2-(trifluoromethyl)nicotinonitrile] — 3-fold lower, 0.752 µM
- C=CC(=O)N1CCN(C2CN(c3cc(N4CCC5(C=CC(C)O5)CC4)nc(C(F)(F)F)c3C#N)C2)CC1 (stereo not shown) [Compound 3-066, 4-(3-(4-acryloylpiperazin-1-yl)azetidin-1-yl)-6-(2-methyl-1-oxa-8-azaspiro[4.5]dec-3-en-8-yl)-2-(trifluoromethyl)nicotinonitrile] — 4.2-fold lower, 0.55 µM
- C=CC(=O)N1CCN(C2CN(c3cc(N4CCC5(C=C[C@@H](C)O5)CC4)nc(C(F)(F)F)c3C#N)C2)CC1 [Compound 3-068-1, (R)-4-(3-(4-acryloylpiperazin-1-yl)azetidin-1-yl)-6-(2-methyl-1-oxa-8-azaspiro[4.5]dec-3-en-8-yl)-2-(trifluoromethyl)nicotinonitrile] — 1.8-fold lower, 1.28 µM
- C=CC(=O)N1CCN(C2CN(c3cc(N4CCC5(C=C[C@H](C)O5)CC4)nc(C(F)(F)F)c3C#N)C2)CC1 [Compound 3-068-2, (S)-4-(3-(4-acryloylpiperazin-1-yl)azetidin-1-yl)-6-(2-methyl-1-oxa-8-azaspiro[4.5]dec-3-en-8-yl)-2-(trifluoromethyl)nicotinonitrile] — within 1.5-fold, 1.54 µM
- C=CC(=O)N1CCN(C2CN(c3cc(N4CCC5(CC4)OCCc4ncsc45)nc(C(F)F)c3C)C2)CC1 [Compound 3-069, 1-(4-(1-(2-(Difluoromethyl)-6-(6′,7′-dihydrospiro[piperidine-4,4′-pyrano[4,3-d]thiazol]-1-yl)-3-methylpyridin-4-yl)azetidin-3-yl)piperazin-1-yl) prop-2-en-1-one] — 2.8-fold lower, 0.83 µM
- C=CC(=O)N1CCN(C2CN(c3cc(N4CCC5(C=CCO5)CC4)nc(C(F)F)c3C)C2)CC1 [Compound 3-070, 1-(4-(1-(2-(difluoromethyl)-3-methyl-6-(1-oxa-8-azaspiro[4.5]dec-3-en-8-yl)pyridin-4-yl)azetidin-3-yl)piperazin-1-yl)prop-2-en-1-one] — 1.6-fold lower, 1.4 µM
- C=CC(=O)N1CCN(C2CN(c3cc(N4C5CCC4CC4(CCCO4)C5)nc(C(F)F)c3C)C2)CC1 (stereo not shown) [Compound 3-071, 1-(4-(1-(2-(difluoromethyl)-6-(dihydro-3′H-8-azaspiro[bicyclo[3.2.1]octane-3,2′-furan]-8-yl)-3-methylpyridin-4-yl)azetidin-3-yl)piperazin-1-yl)prop-2-en-1-one] — within 1.5-fold, 2.99 µM
- C=CC(=O)N1CCN(C2CN(c3cc(N4CCC5(C=CCOC5)CC4)nc(C(F)F)c3C)C2)CC1 [Compound 3-072, 1-(4-(1-(2-(difluoromethyl)-3-methyl-6-(2-oxa-9-azaspiro[5.5]undec-4-en-9-yl)pyridin-4-yl)azetidin-3-yl)piperazin-1-yl)prop-2-en-1-one] — 2.1-fold higher, 4.9 µM
- C=CC(=O)N1CCN([C@@H]2CN(c3cc(N4CCC5(C=CCC5)CC4)nc(C(F)(F)F)n3)[C@@H]2C)CC1 [Compound 3-073, 1-(4-((2R,3R)-1-(6-(8-Azaspiro[4.5]dec-1-en-8-yl)-2-(trifluoromethyl)pyrimidin-4-yl)-2-methylazetidin-3-yl)piperazin-1-yl) prop-2-en-1-one] — 1.9-fold higher, 4.3 µM

— patent publication US20260327243A1, “SPIRO-HETEROCYCLIC INHIBITORS OF KRAS G12C MUTANT PROTEINS AND USES THEREOF” (AMGEN INC., priority 2023, published 2026)
